US11918675B2, “Oral care compositions” (priority 2019, dated 2024)

Legend:
Format in all cases: cell-based
Whole human saliva [1] = assay: In vitro malodor study: fermentation measured by pH; conditions: pooled whole human saliva 2% in growth medium, incubated overnight, n=6
Description: (§1) An in vitro malodor study was conducted to evaluate the effect of various combinations of inulin and xylitol with zinc on oral malodor. Malodor is a combination of hydrogen sulfide and other volatile compounds. Microbial growth as measured by OD610, and fermentation, as measured by pH (confounding variables that impact oral malodor) were also evaluated.
(§2) Whole human saliva was collected from four donors, pooled and suspended in growth medium at a 2% final concentration. Stock, simple solutions of inulin, xylitol, and zinc citrate were prepared in growth medium and incorporated according to the experiment design specified in Table 3 (below). Treatment suspensions were incubated overnight in sterilized headspace vials.
The pH was measured using a standard pH meter by following validated procedures. Statistical significance of differences for all parameters was determined using one-way ANOVA test at 95% confidence level with a Tukey pairwise comparison test. Microbial growth and pH were used to stratify the treatments for hydrogen sulfide statistical analysis.

Whole human saliva [2] = assay: In vitro malodor study: hydrogen sulfide in headspace by SIFT-MS; conditions: pooled whole human saliva 2% in growth medium, incubated overnight, n=6; groups stratified by growth and pH
Description: as §1, §2
(§3) Malodor (i.e., hydrogen sulfide and other volatile compounds) in the culture vial headspace was quantified using validated procedures on Voice200ultra SIFT-MS (Syft Technologies, Christchurch, New Zealand). Following SIFT-MS analysis, microbial growth was quantified using optical density at λ=610 nm.
Hydrogen sulfide in headspace of salivary inoculum was quantified using SIFT-MS validated procedure.

Whole human saliva [3] = assay: In vitro malodor study: microbial growth by OD610; conditions: pooled whole human saliva 2% in growth medium, incubated overnight, n=6
Description: as §1, §2, §3

Row | Compound | pH, Mean (Whole human saliva [1]) | Hydrogen sulfide in headspace of salivary inoculum, Mean (Whole human saliva [2]) [ppb] | Microbial growth as observed by OD610, Mean (Whole human saliva [3])
1 | OC[C@@H](O)[C@H](O)[C@@H](O)CO [Example 4, xylitol] | 5.9067 | 2243 | 0.4182
2 | O=C([O-])CC(O)(CC(=O)[O-])C(=O)[O-].O=C([O-])CC(O)(CC(=O)[O-])C(=O)[O-].[Zn+2].[Zn+2].[Zn+2] [Example 5, zinc citrate] | 6.5948 | 21.86 | 0.1407
